{
  "source": "ChEMBL document CHEMBL5512670",
  "about": "(J Med Chem, 2024)",
  "key": {"[1]": {"assay": "Lipophilicity, logD of the compound at pH 7.4", "assay_type": "physicochemical", "details": "buffer"}, "[2]": {"assay": "Dissociation constant, pKa of the compound", "assay_type": "physicochemical"}, "[3]": {"assay": "AUC (0 to infinity) in Wistar rat at 1 mg/kg,po administration", "assay_type": "ADME, organism-based", "details": "in vivo"}, "[4]": {"assay": "Clearance in Wistar rat plasma at 1 mg/kg,po administration", "assay_type": "ADME, organism-based"}, "[5]": {"assay": "Volume of distribution at steady state in Wistar rat at 1 mg/kg,po administration", "assay_type": "ADME, organism-based", "details": "in vivo"}, "[6]": {"assay": "Half life in Wistar rat at 1 mg/kg,po administration", "assay_type": "ADME, organism-based", "details": "in vivo"}, "[7]": {"assay": "Cmax in C57BL/6 mouse at 10 mg/kg,po administrated upto 24 hrs by LC-MS/MS analysis", "assay_type": "ADME, organism-based", "details": "in vivo"}, "[8]": {"assay": "Cmax in C57BL/6 mouse at 50 mg/kg,po administrated upto 24 hrs by LC-MS/MS analysis", "assay_type": "ADME, organism-based", "details": "in vivo"}, "[9]": {"assay": "Cmax in C57BL/6 mouse infected with Clostridioides difficile CD1264 at 10 mg/kg,po administrated upto 24 hrs by LC-MS/MS analysis", "assay_type": "ADME, organism-based", "details": "in vivo"}, "[10]": {"assay": "Cmax in C57BL/6 mouse infected with Clostridioides difficile CD1264 at 50 mg/kg,po administrated upto 24 hrs by LC-MS/MS analysis", "assay_type": "ADME, organism-based", "details": "in vivo"}, "[11]": {"assay": "Drug concentration in Wistar rat plasma at 50 mg/kg,po administration", "assay_type": "ADME, organism-based", "details": "in vivo"}, "[12]": {"assay": "Oral bioavailability in Wistar rat plasma at 50 mg/kg administration", "assay_type": "ADME, organism-based"}, "[13]": {"assay": "AUC (0 to 24 hrs) in C57BL/6 mouse at 10 mg/kg,po administrated upto 24 hrs by LC-MS/MS analysis", "assay_type": "ADME, organism-based", "details": "in vivo"}, "[14]": {"assay": "Clearance in Wistar rat blood at 1 mg/kg,po administration", "assay_type": "ADME, organism-based"}, "[15]": {"assay": "AUC (0 to 24 hrs) in C57BL/6 mouse at 50 mg/kg,po administrated upto 24 hrs by LC-MS/MS analysis", "assay_type": "ADME, organism-based", "details": "in vivo"}, "[16]": {"assay": "AUC (0 to 24 hrs) in C57BL/6 mouse infected with Clostridioides difficile CD1264 at 10 mg/kg,po administrated upto 24 hrs by LC-MS/MS analysis", "assay_type": "ADME, organism-based", "details": "in vivo"}, "[17]": {"assay": "AUC (0 to 24 hrs) in C57BL/6 mouse infected with Clostridioides difficile CD1264 at 50 mg/kg,po administrated upto 24 hrs by LC-MS/MS analysis", "assay_type": "ADME, organism-based", "details": "in vivo"}, "[18]": {"assay": "Drug metabolism in human liver microsomes assessed as metabolite formation", "assay_type": "ADME, Microsome"}, "[19]": {"assay": "Drug metabolism in human Hepatocyte assessed as metabolite formation", "assay_type": "ADME, cell-based", "details": "hepatocytes"}},
  "data": [
    {"molecule": "O=C(O)c1cn(C2CC2)c2cc(N3CCC(O)(COc4ccc(N5C[C@H](CO)OC5=O)cc4F)CC3)c(F)cc2c1=O", "note": "[CADAZOLID]", "values": [
      {"measurement": "logD", "setting": "[1]", "value": 1.2},
      {"measurement": "pKa", "setting": "[2]", "value": 6},
      {"measurement": "AUC(0-inf)", "setting": "[3]", "value": 255, "unit": "ng·h/mL"},
      {"measurement": "CL/F", "setting": "[4]", "value": 65, "unit": "mL/min/kg"},
      {"measurement": "Vdss", "setting": "[5]", "value": 2, "unit": "L/kg"},
      {"measurement": "half-life", "setting": "[6]", "value": 36, "unit": "min"},
      {"measurement": "Cmax", "setting": "[7]", "value": 3, "unit": "ng/mL"},
      {"measurement": "Cmax", "setting": "[8]", "value": 6, "unit": "ng/mL"},
      {"measurement": "Cmax", "setting": "[9]", "value": 12, "unit": "ng/mL"},
      {"measurement": "Cmax", "setting": "[10]", "value": 10, "unit": "ng/mL"},
      {"measurement": "Cp", "setting": "[11]", "value": 1, "unit": "ng/mL"},
      {"measurement": "bioavailability", "setting": "[12]", "value": 0, "unit": "%"},
      {"measurement": "AUC(0-t) at 24 h", "setting": "[13]", "value": 9, "unit": "ng·h/mL"},
      {"measurement": "CL/F", "setting": "[14]", "value": 96, "unit": "mL/min/kg"},
      {"measurement": "AUC(0-t) at 24 h", "setting": "[15]", "value": 78, "unit": "ng·h/mL"},
      {"measurement": "AUC(0-t) at 24 h", "setting": "[16]", "value": 27, "unit": "ng·h/mL"},
      {"measurement": "AUC(0-t) at 24 h", "setting": "[17]", "value": 147, "unit": "ng·h/mL"},
      {"measurement": "Drug metabolism", "setting": "[18]", "value": "Metabolite_Notdetected"},
      {"measurement": "Drug metabolism", "setting": "[19]", "value": "Metabolite_Notdetected"}
    ]}
  ]
}
